Consider 30 compounds from patent US20250129104A1, “7H-PYRROLO[2,3-D]PYRIMIDINES AND PREPARATION AND USES THEREOF” (BioSplice Therapeutics, Inc., priority 2021, published 2025).

The experiment deals with recombinant DYRK1A kinase (Homo sapiens (Human), UniProt Q13627). The experiment is described as follows: DYRK1A kinase assay (Ser/Thr 18 peptide Z-lyte FRET assay). The settings on record: DYRK1A kinase activity; 15 μM ATP, 1 h room temperature; method text calls the value IC50. The experiment is classed as biochemical. A digest of the protocol: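 FRET Z-lyte read-out (coumarin/fluorescein ratio, % phosphorylation) after 1 h development; IC50 from non-linear curve fit. Reaction: 0.25 μg/mL recombinant human DYRK1A, Ser/Thr 18 peptide 4 μM, ATP 15 μM, compound in 11-point 1:3 series from 10 μM, 1 h, room temperature, duplicate wells.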

Consider `COc1nc(NCC(C)(C)F)nc2[nH]cc(-c3ccc4nccn4c3)c12` [Compound 2240, N-(2-Fluoro-2-methylpropyl)-5-(imidazo[1,2-a]pyridin-6-yl)-4-methoxy-7H-pyrrolo[2,3-d]pyrimidin-2-amine], for which the EC50 is 7.9 nM.
Next, `COc1nc(NC2CCC(F)(F)CC2)nc2[nH]cc(-c3ccc4nccn4c3)c12` [Compound 2241, N-(4,4-Difluorocyclohexyl)-5-(imidazo[1,2-a]pyridin-6-yl)-4-methoxy-7H-pyrrolo[2,3-d]pyrimidin-2-amine]: 26.9 nM.
Next, `[2H]C([2H])([2H])O[C@H]1CC[C@@H](Nc2nc(OC)c3c(-c4ccc5nccn5c4)c[nH]c3n2)CC1` [Compound 2242, 5-(Imidazo[1,2-a]pyridin-6-yl)-4-methoxy-N-(cis-4-(methoxy-d3)cyclohexyl)-7H-pyrrolo[2,3-d]pyrimidin-2-amine]: 28.4 nM; `COc1nc(N[C@H]2CC[C@H](OC(F)F)CC2)nc2[nH]cc(-c3ccc4nccn4c3)c12` [Compound 2245, N-(trans-4-(Difluoromethoxy)cyclohexyl)-5-(imidazo[1,2-a]pyridin-6-yl)-4-methoxy-7H-pyrrolo[2,3-d]pyrimidin-2-amine]: 29.6 nM; `COc1nc(N[C@H]2CC[C@@H](OC(F)(F)F)CC2)nc2[nH]cc(-c3ccc4nccn4c3)c12` [Compound 2246, 5-(Imidazo[1,2-a]pyridin-6-yl)-4-methoxy-N-(cis-4-(trifluoromethoxy)cyclohexyl)-7H-pyrrolo[2,3-d]pyrimidin-2-amine]: 132 nM.
Next, `CCOc1nc(N[C@H]2CC[C@@](C)(O)CC2)nc2[nH]cc(-c3ccc4nccn4c3)c12` [Compound 2254, cis-4-((4-Ethoxy-5-(imidazo[1,2-a]pyridin-6-yl)-7H-pyrrolo[2,3-d]pyrimidin-2-yl)amino)-1-methylcyclohexan-1-ol]: 25.8 nM; `COc1nc(NCC(C)(C)F)nc2[nH]cc(-c3cc(F)c4nccn4c3)c12` [Compound 2255, N-(2-Fluoro-2-methylpropyl)-5-(8-fluoroimidazo[1,2-a]pyridin-6-yl)-4-methoxy-7H-pyrrolo[2,3-d]pyrimidin-2-amine]: 19 nM.
As to `[2H]C([2H])([2H])O[C@H]1CC[C@@H](Nc2nc(OC)c3c(-c4cc(F)c5nccn5c4)c[nH]c3n2)CC1` [Compound 2256, 5-(8-Fluoroimidazo[1,2-a]pyridin-6-yl)-4-methoxy-N-(cis-4-(methoxy-d3)cyclohexyl)-7H-pyrrolo[2,3-d]pyrimidin-2-amine], the EC50 came out at 15 nM.
In the case of `COc1nc(N[C@H]2CC[C@@H](OC(F)F)CC2)nc2[nH]cc(-c3cc(F)c4nccn4c3)c12` [Compound 2258, N-(cis-4-(Difluoromethoxy)cyclohexyl)-5-(8-fluoroimidazo[1,2-a]pyridin-6-yl)-4-methoxy-7H-pyrrolo[2,3-d]pyrimidin-2-amine] it was 193 nM.
In the case of `COc1nc(N[C@H]2CC[C@@H](OC(F)(F)F)CC2)nc2[nH]cc(-c3cc(F)c4nccn4c3)c12` [Compound 2260, 5-(8-Fluoroimidazo[1,2-a]pyridin-6-yl)-4-methoxy-N-(cis-4-(trifluoromethoxy)cyclohexyl)-7H-pyrrolo[2,3-d]pyrimidin-2-amine] it was 245 nM.
Next, `COc1nc(NC2CCC(F)(F)CC2)nc2[nH]cc(-c3cnc4nccn4c3)c12` [Compound 2268, N-(4,4-Difluorocyclohexyl)-5-(imidazo[1,2-a]pyrimidin-6-yl)-4-methoxy-7H-pyrrolo[2,3-d]pyrimidin-2-amine]: 9.9 nM; `COc1nc(NCC(C)(C)F)nc2[nH]cc(-c3cnc4nc(C)n(CC(F)F)c4c3)c12` [Compound 2269, 5-(1-(2,2-Difluoroethyl)-2-methyl-1H-imidazo[4,5-b]pyridin-6-yl)-N-(2-fluoro-2-methylpropyl)-4-methoxy-7H-pyrrolo[2,3-d]pyrimidin-2-amine]: 77.2 nM; `COC[C@@H](C)Nc1nc(OC)c2c(-c3cnc4nc(C)n(CC(F)F)c4c3)c[nH]c2n1` [Compound 2271, (R)-5-(1-(2,2-Difluoroethyl)-2-methyl-1H-imidazo[4,5-b]pyridin-6-yl)-4-methoxy-N-(1-methoxypropan-2-yl)-7H-pyrrolo[2,3-d]pyrimidin-2-amine]: 112 nM.
As to `COc1nc(NC2CCC(F)(F)CC2)nc2[nH]cc(-c3cnc4nc(C)n(CC(F)F)c4c3)c12` [Compound 2272, N-(4,4-Difluorocyclohexyl)-5-(1-(2,2-difluoroethyl)-2-methyl-1H-imidazo[4,5-b]pyridin-6-yl)-4-methoxy-7H-pyrrolo[2,3-d]pyrimidin-2-amine], the EC50 amounted to 62.2 nM.
In the case of `COc1nc(NCC(C)(C)F)nc2[nH]cc(-c3ccc4nc(C)n(CC(F)F)c4n3)c12` [Compound 2276, 5-(3-(2,2-Difluoroethyl)-2-methyl-3H-imidazo[4,5-b]pyridin-5-yl)-N-(2-fluoro-2-methylpropyl)-4-methoxy-7H-pyrrolo[2,3-d]pyrimidin-2-amine] it was 256 nM.
Next, `COC[C@@H](C)Nc1nc(OC)c2c(-c3ccc4nc(C)n(CC(F)F)c4n3)c[nH]c2n1` [Compound 2278, (R)-5-(3-(2,2-Difluoroethyl)-2-methyl-3H-imidazo[4,5-b]pyridin-5-yl)-4-methoxy-N-(1-methoxypropan-2-yl)-7H-pyrrolo[2,3-d]pyrimidin-2-amine]: 1000 nM; `COc1nc(NC2CCC(F)(F)CC2)nc2[nH]cc(-c3ccc4nc(C)n(CC(F)F)c4n3)c12` [Compound 2279, N-(4,4-Difluorocyclohexyl)-5-(3-(2,2-difluoroethyl)-2-methyl-3H-imidazo[4,5-b]pyridin-5-yl)-4-methoxy-7H-pyrrolo[2,3-d]pyrimidin-2-amine]: 250 nM.
In the case of `COc1nc(N[C@H]2CC[C@@H](OC(F)F)CC2)nc2[nH]cc(-c3ccc4nc(C)n(CC(F)F)c4n3)c12` [Compound 2281, 5-(3-(2,2-Difluoroethyl)-2-methyl-3H-imidazo[4,5-b]pyridin-5-yl)-N-(cis-4-(difluoromethoxy)cyclohexyl)-4-methoxy-7H-pyrrolo[2,3-d]pyrimidin-2-amine] it was 269 nM; in that of `COc1nc(NCC(C)(C)F)nc2[nH]cc(-c3ccc4nnn(C)c4c3)c12` [Compound 2283, N-(2-Fluoro-2-methylpropyl)-4-methoxy-5-(1-methyl-1H-benzo[d][1,2,3]triazol-6-yl)-7H-pyrrolo[2,3-d]pyrimidin-2-amine], 47.4 nM.
`COc1nc(NC2CCC(F)(F)CC2)nc2[nH]cc(-c3ccc4nnn(C)c4c3)c12` [Compound 2284, N-(4,4-Difluorocyclohexyl)-4-methoxy-5-(1-methyl-1H-benzo[d][1,2,3]triazol-6-yl)-7H-pyrrolo[2,3-d]pyrimidin-2-amine]: the EC50 was 83.9 nM.
Next, `[2H]C([2H])([2H])O[C@H]1CC[C@@H](Nc2nc(OC)c3c(-c4ccc5nnn(C)c5c4)c[nH]c3n2)CC1` [Compound 2285, 4-Methoxy-N-(cis-4-(methoxy-d3)cyclohexyl)-5-(1-methyl-1H-benzo[d][1,2,3]triazol-6-yl)-7H-pyrrolo[2,3-d]pyrimidin-2-amine]: 200 nM; `COc1nc(N[C@H]2CC[C@@H](OC(F)F)CC2)nc2[nH]cc(-c3ccc4nnn(C)c4c3)c12` [Compound 2287, N-(cis-4-(Difluoromethoxy)cyclohexyl)-4-methoxy-5-(1-methyl-1H-benzo[d][1,2,3]triazol-6-yl)-7H-pyrrolo[2,3-d]pyrimidin-2-amine]: 239 nM; `COc1nc(N[C@H]2CC[C@@H](OC(F)(F)F)CC2)nc2[nH]cc(-c3ccc4nnn(C)c4c3)c12` [Compound 2289, 4-Methoxy-5-(1-methyl-1H-benzo[d][1,2,3]triazol-6-yl)-N-(cis-4-(trifluoromethoxy)cyclohexyl)-7H-pyrrolo[2,3-d]pyrimidin-2-amine]: 1480 nM.
`COC[C@@H](C)Nc1nc(OC)c2c(-c3ccc4nnn(CC(F)F)c4c3)c[nH]c2n1` [Compound 2294, (R)-5-(1-(2,2-Difluoroethyl)-1H-benzo[d][1,2,3]triazol-6-yl)-4-methoxy-N-(1-methoxypropan-2-yl)-7H-pyrrolo[2,3-d]pyrimidin-2-amine]: the EC50 was 23.7 nM.
Next, `COc1nc(NCC(C)(C)F)nc2[nH]cc(-c3ccc4nccn4n3)c12` [Compound 2298, N-(2-Fluoro-2-methylpropyl)-5-(imidazo[1,2-b]pyridazin-6-yl)-4-methoxy-7H-pyrrolo[2,3-d]pyrimidin-2-amine]: 117 nM; `COC[C@@H](C)Nc1nc(OC)c2c(-c3ccc4nccn4n3)c[nH]c2n1` [Compound 2300, (R)-5-(Imidazo[1,2-b]pyridazin-6-yl)-4-methoxy-N-(1-methoxypropan-2-yl)-7H-pyrrolo[2,3-d]pyrimidin-2-amine]: 230 nM; `COc1nc(NCC(C)(C)F)nc2[nH]cc(-c3ccn4nccc4c3)c12` [Compound 2305, N-(2-Fluoro-2-methylpropyl)-4-methoxy-5-(pyrazolo[1,5-a]pyridin-5-yl)-7H-pyrrolo[2,3-d]pyrimidin-2-amine]: 21.8 nM.
As for `COc1nc(N[C@H]2CC[C@@H](OC)CC2)nc2[nH]cc(-c3ccn4nccc4c3)c12` [Compound 2306, 4-Methoxy-N-(cis-4-methoxycyclohexyl)-5-(pyrazolo[1,5-a]pyridin-5-yl)-7H-pyrrolo[2,3-d]pyrimidin-2-amine], the EC50 is 171 nM.
With `COc1nc(N[C@H]2CC[C@H](OC(F)F)CC2)nc2[nH]cc(-c3ccn4nccc4c3)c12` [Compound 2308, N-(trans-4-(Difluoromethoxy)cyclohexyl)-4-methoxy-5-(pyrazolo[1,5-a]pyridin-5-yl)-7H-pyrrolo[2,3-d]pyrimidin-2-amine], the EC50 turned out to be 462 nM.
Next, `COc1nc(N[C@@H]2CCCOC2)nc2[nH]cc(-c3ccn4nccc4c3)c12` [Compound 2314, (R)-4-Methoxy-5-(pyrazolo[1,5-a]pyridin-5-yl)-N-(tetrahydro-2H-pyran-3-yl)-7H-pyrrolo[2,3-d]pyrimidin-2-amine]: 17.3 nM.

In general, EC50 refers to the concentration at which the effect is half-maximal.
